Data set [1] in a line: Mouse (CD-1(ICR)) serum. As to conditions: 37 °C, up to 60 min.
Data set [2] relates to LPS-stimulated MG6 cells. Briefly: Anti-inflammatory effect in LPS-stimulated MG6 cells (TNF-α / IL-6 ELISA). Format: cell-based, mouse. As to conditions: LPS-stimulated MG6 cells; for effect on expression of TNF-α: vs LPS-stimulated cells without treatment; for inhibition of IL-6 expression compared with MHP1 / inhibition of TNF-α expression compared with MHP1: medium harvested 24 h after stimulation. How it is done: MG6 cells were obtained from RIKEN BRC (Tsukuba, Japan)[25],[26]. The MG6 cells were maintained in DMEM (Nakarai, Kyoto, Japan) supplemented with 10% FBS (Thermo Fisher Scientific, Waltham, MA, USA), 10 μg/ml insulin (Sigma-Aldrich, St. Louis, MO, USA) and 100 μM 2-mercaptoethanol (Sigma-Aldrich). These cells (1 × 10^5 cells) were plated in 96-well plastic culture dishes. After overnight incubation, the medium was replaced with DMEM supplemented with 4% FBS. LPS (Escherichia coli 0111: B4; Sigma-Aldrich, St. Louis, MO, USA) and MHP1 or modified MHP1 was added to the medium, which was then harvested at 24 h after stimulation. In the experiment checking the stability at 26 or 37 °C, MHP1-Ac or MHP1-AcN was incubated at 26 or 37 °C for 24 h before adding to the medium.
The concentrations of TNF-α and IL-6 were measured using commercially available ELISA kits: TNF-α, Quantikine Mouse TNF-α ELISA Kit (R&D systems); IL-6, Quantikine Mouse IL-6 ELISA Kit (R&D systems).
In general terms: ELISA stands for enzyme-linked immunosorbent assay.

The nature of data set [3]: Dissolution in water and sedimentation in 0.45% saline at 37 °C for 24 h. Format: physicochemical. As for the experimental part: Synthetic MHP1 (NH2-[…]-COOH), MHP1-DN1 (NH2-LMVYVV-DLys-[…]-COOH), MHP1-DN2 (NH2-LMV-DTyr-[…]-COOH), MHP1-DN3 (NH2-L-DMet-[…]-COOH), MHP1-DC (NH2-LMVYVVKTSIKIPSSHNL-DMet-KGGSTKNWSGN-COOH), MHP1-Ac (Ac-[…]-COOH), MHP1-AcN (Ac-[…]-HN2), or MHP1-N (NH2-[…]-NH2) was purchased from ILS, Inc (Ibaraki, Tsukuba, Japan), dissolved in 1 or 2 mg/ml ddH2O and stored at 4 °C until use (Table 1).

Data set [4] concerns LPS-stimulated MG6 cells. The data set is described as follows: LDH assay in LPS-stimulated MG6 cells. It is filed as cell-based, mouse.
Data set [5] is described as follows: Pharmacokinetics after intravenous injection 4 h after tMCAo (LC/MS/MS). Format: in vivo. As to conditions: mouse, i.v. 2 mg/ml, 10 ml/kg in 0.45% saline. As for the experimental part: MHP1-Ac or MHP1-AcN (2 mg/ml, 10 ml/kg in 0.45% saline) was administered intravenously 4 hrs after tMCAo and mouse plasma was collected at 5 min, 10 min, 20 min, 30 min, 45 min, 1 h, and 2 h after injection. Mouse plasma (C57BL6J, 10 µL) and water/phosphoric acid (24:1, v/v) (Solution B, 500 µL) were mixed together to prepare the plasma samples. The samples (510 µL) were then analyzed using LC/MS/MS to determine MHP1-Ac or MHP1-AcN in plasma. Mouse brain was weighed and mixed with a 4-fold volume of solution B and the mixture was homogenized to prepare the brain samples. The specific gravity of solution B was assumed to be 1. The brain samples (10 µL) were analyzed using LC/MS/MS to determine MHP1-Ac or MHP1-AcN in brain. MHP1-Ac and MHP1-AcN, and MHP1-N (internal standard), in the plasma samples and brain samples, were extracted using Oasis HLB μElution Plate (Waters). Chromatographic analysis was performed on an InertSustain C18 (2.1 mm I.D. ×50 mm, 3 µm, GL Sciences) column using the mobile phase A, water/formic acid (1000:1, v/v), and the mobile phase B, acetonitrile/formic acid (1000:1, v/v).

Square brackets hold non-standard residues; d marks the D form. Peptide text beside a SMILES is read from it.

Turning to LMVYVVKTSIKIPSSHNLMKGGSTKNWSGN, in data set [1], the cleaved bond result is “L-M2 and M2-V and V-Y4 and Y4-V, major and K7-T, major and Met19-K”; the fragment found result is recorded as “LMVYVVKTSIKIPSSHNLMKGGSTKNWSGN-Oxygen”.
On to `CC[C@H](C)[C@H](NC(=O)[C@H](CO)NC(=O)[C@@H](NC(=O)[C@H](CCCCN)NC(=O)[C@@H](NC(=O)[C@@H](NC(=O)[C@H](Cc1ccc(O)cc1)NC(=O)[C@@H](NC(=O)[C@@H](CCSC)NC(=O)[C@@H](N)CC(C)C)C(C)C)C(C)C)C(C)C)[C@@H](C)O)C(=O)N[C@@H](CCCCN)C(=O)N[C@H](C(=O)N1CCC[C@H]1C(=O)N[C@@H](CO)C(=O)N[C@@H](CO)C(=O)N[C@@H](Cc1c[nH]cn1)C(=O)N[C@@H](CC(N)=O)C(=O)N[C@@H](CC(C)C)C(=O)N[C@@H](CCSC)C(=O)N[C@@H](CCCCN)C(=O)NCC(=O)NCC(=O)N[C@@H](CO)C(=O)N[C@H](C(=O)N[C@@H](CCCCN)C(=O)N[C@@H](CC(N)=O)C(=O)N[C@@H](Cc1c[nH]c2ccccc12)C(=O)N[C@@H](CO)C(=O)NCC(=O)N[C@@H](CC(N)=O)C(=O)O)[C@@H](C)O)[C@@H](C)CC` [MHP1-DN3] (H-L[dM]VYVVKTSIKIPSSHNLMKGGSTKNWSGN-OH), for which, in data set [2] (24 h, ELISA), the anti-inflammatory effects result is “lacked anti-inflammatory effects” and the “effect on expression of TNF-α” value was “no influence”.
With `CC[C@H](C)[C@H](NC(=O)[C@H](CO)NC(=O)[C@@H](NC(=O)[C@H](CCCCN)NC(=O)[C@@H](NC(=O)[C@@H](NC(=O)[C@H](Cc1ccc(O)cc1)NC(=O)[C@@H](NC(=O)[C@H](CCSC)NC(=O)[C@@H](N)CC(C)C)C(C)C)C(C)C)C(C)C)[C@@H](C)O)C(=O)N[C@@H](CCCCN)C(=O)N[C@H](C(=O)N1CCC[C@H]1C(=O)N[C@@H](CO)C(=O)N[C@@H](CO)C(=O)N[C@@H](Cc1c[nH]cn1)C(=O)N[C@@H](CC(N)=O)C(=O)N[C@@H](CC(C)C)C(=O)N[C@@H](CCSC)C(=O)N[C@@H](CCCCN)C(=O)NCC(=O)NCC(=O)N[C@@H](CO)C(=O)N[C@H](C(=O)N[C@@H](CCCCN)C(=O)N[C@@H](CC(N)=O)C(=O)N[C@@H](Cc1c[nH]c2ccccc12)C(=O)N[C@@H](CO)C(=O)NCC(=O)N[C@@H](CC(N)=O)C(N)=O)[C@@H](C)O)[C@@H](C)CC` [MHP1-N] (H-LMVYVVKTSIKIPSSHNLMKGGSTKNWSGN-NH2), in data set [2] (ELISA), the “inhibition of IL-6 expression compared with MHP1” value is on record as “not replicated” and the “inhibition of TNF-α expression compared with MHP1” value is given as “more effective than MHP1”.
In the case of `CC[C@H](C)[C@H](NC(=O)[C@H](CO)NC(=O)[C@@H](NC(=O)[C@H](CCCCN)NC(=O)[C@@H](NC(=O)[C@@H](NC(=O)[C@@H](Cc1ccc(O)cc1)NC(=O)[C@@H](NC(=O)[C@H](CCSC)NC(=O)[C@@H](N)CC(C)C)C(C)C)C(C)C)C(C)C)[C@@H](C)O)C(=O)N[C@@H](CCCCN)C(=O)N[C@H](C(=O)N1CCC[C@H]1C(=O)N[C@@H](CO)C(=O)N[C@@H](CO)C(=O)N[C@@H](Cc1c[nH]cn1)C(=O)N[C@@H](CC(N)=O)C(=O)N[C@@H](CC(C)C)C(=O)N[C@@H](CCSC)C(=O)N[C@@H](CCCCN)C(=O)NCC(=O)NCC(=O)N[C@@H](CO)C(=O)N[C@H](C(=O)N[C@@H](CCCCN)C(=O)N[C@@H](CC(N)=O)C(=O)N[C@@H](Cc1c[nH]c2ccccc12)C(=O)N[C@@H](CO)C(=O)NCC(=O)N[C@@H](CC(N)=O)C(=O)O)[C@@H](C)O)[C@@H](C)CC` [MHP1-DN2] (H-LMV[dY]VVKTSIKIPSSHNLMKGGSTKNWSGN-OH), in data set [2] (24 h, ELISA), the anti-inflammatory effects entry was “lacked anti-inflammatory effects” and the “effect on expression of TNF-α” value is “augmented the expression of TNF-α”.
Take `CC[C@H](C)[C@H](NC(=O)[C@H](CO)NC(=O)[C@@H](NC(=O)[C@H](CCCCN)NC(=O)[C@@H](NC(=O)[C@@H](NC(=O)[C@H](Cc1ccc(O)cc1)NC(=O)[C@@H](NC(=O)[C@H](CCSC)NC(=O)[C@@H](N)CC(C)C)C(C)C)C(C)C)C(C)C)[C@@H](C)O)C(=O)N[C@@H](CCCCN)C(=O)N[C@H](C(=O)N1CCC[C@H]1C(=O)N[C@@H](CO)C(=O)N[C@@H](CO)C(=O)N[C@@H](Cc1c[nH]cn1)C(=O)N[C@@H](CC(N)=O)C(=O)N[C@@H](CC(C)C)C(=O)N[C@H](CCSC)C(=O)N[C@@H](CCCCN)C(=O)NCC(=O)NCC(=O)N[C@@H](CO)C(=O)N[C@H](C(=O)N[C@@H](CCCCN)C(=O)N[C@@H](CC(N)=O)C(=O)N[C@@H](Cc1c[nH]c2ccccc12)C(=O)N[C@@H](CO)C(=O)NCC(=O)N[C@@H](CC(N)=O)C(=O)O)[C@@H](C)O)[C@@H](C)CC` [MHP1-DC] (H-LMVYVVKTSIKIPSSHNL[dM]KGGSTKNWSGN-OH): in data set [2] (ELISA), the “inhibition of IL-6 expression compared with MHP1” value was “not replicated” and the “inhibition of TNF-α expression compared with MHP1” value is on record as “more effective than MHP1”.
As for `CC[C@H](C)[C@H](NC(=O)[C@H](CO)NC(=O)[C@@H](NC(=O)[C@@H](CCCCN)NC(=O)[C@@H](NC(=O)[C@@H](NC(=O)[C@H](Cc1ccc(O)cc1)NC(=O)[C@@H](NC(=O)[C@H](CCSC)NC(=O)[C@@H](N)CC(C)C)C(C)C)C(C)C)C(C)C)[C@@H](C)O)C(=O)N[C@@H](CCCCN)C(=O)N[C@H](C(=O)N1CCC[C@H]1C(=O)N[C@@H](CO)C(=O)N[C@@H](CO)C(=O)N[C@@H](Cc1c[nH]cn1)C(=O)N[C@@H](CC(N)=O)C(=O)N[C@@H](CC(C)C)C(=O)N[C@@H](CCSC)C(=O)N[C@@H](CCCCN)C(=O)NCC(=O)NCC(=O)N[C@@H](CO)C(=O)N[C@H](C(=O)N[C@@H](CCCCN)C(=O)N[C@@H](CC(N)=O)C(=O)N[C@@H](Cc1c[nH]c2ccccc12)C(=O)N[C@@H](CO)C(=O)NCC(=O)N[C@@H](CC(N)=O)C(=O)O)[C@@H](C)O)[C@@H](C)CC` [MHP1-DN1] (H-LMVYVV[dK]TSIKIPSSHNLMKGGSTKNWSGN-OH), in data set [2] (24 h, ELISA), the anti-inflammatory effects entry is reported as “lacked anti-inflammatory effects” and the “effect on expression of TNF-α” value is given as “augmented the expression of TNF-α”.
As to `CC[C@H](C)[C@H](NC(=O)[C@H](CO)NC(=O)[C@@H](NC(=O)[C@H](CCCCN)NC(=O)[C@@H](NC(=O)[C@@H](NC(=O)[C@H](Cc1ccc(O)cc1)NC(=O)[C@@H](NC(=O)[C@H](CCSC)NC(=O)[C@H](CC(C)C)NC(C)=O)C(C)C)C(C)C)C(C)C)[C@@H](C)O)C(=O)N[C@@H](CCCCN)C(=O)N[C@H](C(=O)N1CCC[C@H]1C(=O)N[C@@H](CO)C(=O)N[C@@H](CO)C(=O)N[C@@H](Cc1c[nH]cn1)C(=O)N[C@@H](CC(N)=O)C(=O)N[C@@H](CC(C)C)C(=O)N[C@@H](CCSC)C(=O)N[C@@H](CCCCN)C(=O)NCC(=O)NCC(=O)N[C@@H](CO)C(=O)N[C@H](C(=O)N[C@@H](CCCCN)C(=O)N[C@@H](CC(N)=O)C(=O)N[C@@H](Cc1c[nH]c2ccccc12)C(=O)N[C@@H](CO)C(=O)NCC(=O)N[C@@H](CC(N)=O)C(=O)O)[C@@H](C)O)[C@@H](C)CC` [MHP1-Ac] (Ac-LMVYVVKTSIKIPSSHNLMKGGSTKNWSGN-OH), the “sedimentation after incubation in 0.45% saline” value in data set [3] (0.45% saline, 37 °C, 24 h, visual, concentration not given) is given as “experienced sedimentation”. In data set [3] (water), the dissolution in water entry was “easily dissolved in water”. Besides, in data set [4], the “cytotoxicity (LDH assay)” value was “did not increase cytotoxicity”. Also, the “anti-inflammatory effects at 1 µg/ml” value in data set [2] (1 µg/ml peptide) is recorded as “not seen”. Also, the “dose dependency of anti-inflammatory effects” value in data set [2] (24 h, ELISA) is “Dose-dependent anti-inflammatory effects were observed”. Further, in data set [2] (ELISA), the “inhibition of IL-6 expression compared with MHP1” value is “more effective than MHP1” and the “inhibition of TNF-α expression compared with MHP1” value is reported as “more effective than MHP1”. In addition, the “time post-injection until which peptide was detected in the brain” value in data set [5] (brain homogenate, last sampling 2 h) was found to be 2 h. Besides, the “time within which peptide was degraded in plasma” value in data set [5] (plasma) is on record as at most 20 min.

For the origin of these results see publication PMC6290023 (Scientific Reports, 2018).
